We go through five compounds from patent publication US9687551B2, “Compositions comprising lecithin oils and NSAIDs for protecting the gastrointestinal tract and providing enhanced therapeutic activity” (The Board of Regents of the University of Texas System, priority 2000, dated 2017).

In data set [1] the test system is vascular (endothelial) PGI2, abdominal aorta. The experiment in a line: Ex vivo 6-keto PGF1α production by abdominal aorta. The format is in vivo, rat. To be noted: 20 mg/kg ASA intragastric, 1 hr, incubated with AA; vs control; FIG. 13B. The method, then:
FIG. 13B graphically depicts the effect of intragastric administration to rats of 20 mg/kg ASA alone or complexed with DPPC on 6KPGF1a production by abdominal aorta. After 1 hr the aorta was removed and each aorta ring was incubated at […] for 10 min in Tris-HCl buffer containing 25 mM AA. 6KPGF1a was measured by RIA. *=p<0.050 vs ASA; **=p<0.001 vs saline; n=4;
This ex vivo approach was then used to measure vascular (endothelial) PGI2. Abdominal aorta excised one hour after drug administration was evaluated for its ability to produce 6-keto PGF1α (a stable metabolite of PGI2) by incubating it with arachidonic acid (AA, 25 mM). […] It is, therefore, possible to achieve selective inhibition of platelet cyclooxygenase and preserve vascular prostacyclin biosynthesis by the administration of PC-aspirin.

Data set [2] concerns PGI2 to TXA2 ratio of carotid artery. The experiment in a line: PGI2 to TXA2 ratio in affected carotid arteries. The format is in vivo, rabbit. Conditions: 2.5 mg/kg aspirin; FIG. 14C. The method, then: 6-keto PGF1α (a metabolite of PGI2) and TXA2 concentrations was also measured in the affected carotid arteries.
Data set [3] deals with rabbit carotid artery thrombus. The experiment in a line: In vivo model of arterial thrombogenesis (carotid artery, anodal current). On the procedure: The anti-thrombotic effect of aspirin with or without PC was then evaluated in an in vivo model of arterial thrombogenesis. According to the protocol (B24), the left carotid artery of an anesthetized rabbit was subjected to anodal current to the point where mean carotid blood flow velocity was […] control values, which corresponds to 50% occlusion of the vessel by the formed thrombus. At this point the current was discontinued and the test drugs intravenously administered as blood flow was monitored over the next 2-3 hours. It can be appreciated from FIG. 14A that carotid artery blood flow velocity dropped to zero (indicative of complete thrombus occlusion of the vessel) in <60 min in control rabbits treated with either saline or phospholipid alone (mean time until closing=40±17).

Data set [4] relates to fasted Sprague Dawley rats. The data set is described as follows: Acetaminophen liver injury, plasma AST. The format is in vivo, rat. To be noted: acetaminophen 800 mg/kg oral, 24 hrs, P35 SB 1:2 wt ratio, vs saline; FIG. 15. The method, then: FIG. 15 graphically depicts data relating to liver injury in rats, as indicated by elevations in the plasma levels of the enzyme aspartate transaminase (AST), 24 hours after fasted rats are orally administrated acetaminophen (800 mg/kg) alone or in combination with P35SB at wt. ratios of 1:1 and 1:2.

For data set [5], the system named is fasted rats. The experiment in a line: GI bleeding (hemoglobin in GI effusate) in rats sensitised with L-NAME. The format is in vivo, rat. Conditions: intragastric, NSAID:lecithin 1:1, L-NAME. The method, then:
Control rats received an equivalent volume of saline. To make the rats more sensitive to the GI damaging effects of the NSAID all rats also were injected with the nitric oxide (NO) synthase inhibitor, L-NAME (20 mg/kg), three times over the 18-20 hr study period, after which the animals were euthanized and the distal 20 cm of the GI tract was flushed with 2 ml of saline, and the effusate collected for hemoglobin analysis—as an index of GI bleeding.

Another data set relates to rats' inflamed paw. The experiment in a line: Pain threshold of CFA-inflamed hindpaw (Randall-Sellito technique). To be noted: 2 h; for pain pressure threshold of inflamed paw (analgesic activity): lecithin oil 1:1. The format is in vivo, rat. The method, then: A previously described method was then used to evaluate the anti-inflammatory/analgesic activity of the NSAID-lecithin formulations (in comparison to the NSAIDs alone). This was accomplished be injecting 0.1 ml of Complete Freund's Adjuvant (CFA) into the left hindpaw of rats to induce an acute inflammatory response. […] The results are depicted in FIGS. 4-6.

The subject of the next data set is Tg2576 mouse. To be noted: cited from earlier work.
The next data set concerns SCI rats. To be noted: 25 mg NSAID/kg twice a day. An excerpt: In FIG. 7A, the data was plotted directly as recorded (without normalization), while in FIG. 7B, the data values for each animal are compared to its own baseline preoperative values.
Please note that in this case, a lower number is indicative of analgesic, whereas with the Randall Sellito test higher pain pressure threshold values are indicative of analgesia.

Another data set relates to mucosal COX activity. To be noted: aspirin subcutaneously or intragastrically; cited from earlier work.
Data set [6] concerns TXB2 production in rat platelets. The data set is described as follows: Ex vivo TXB2 production in platelets after intragastric dosing. To be noted: 20 mg/kg intragastric, 30 min, aggregation induced by arachidonic acid; FIG. 13A. The method, then:
FIGS. 13A&B graphically depicts Concentration of TXB2 in rat platelets, 30 min after oral administration of saline, DPPC, ASA (20 mg/kg), or ASA complexed with DPPC. PRP was prepared and aggregation induced by AA (2 mM). TXB2 was measured by RIA. The results expressed as mean±SEM; n=3. *=p<0.050 vs ASA—Abbreviations: DPPC=dipalmitoylphosphatidylcholine; AA=arachidonic acid; pRP=platelet rich plasma; TXB=thromboxane;
Ex vivo animal studies of the effects of phospholipid-aspirin complex (containing equimolar concentration of the two agents) on the ability to produce TXA2 and PGI2 in platelets and vascular tissue respectively were invesitaged. Rats were intragastrically administered either unmodified or DPPC-associated aspirin (20 mg/kg dose), and after 30 minutes, blood was drawn, platelet-rich plasma was prepared, and aggregation was induced by arachidonic acid.

Data set [7] has as its system fasted rats. The experiment in a line: Gastric lesions after intragastric aspirin followed by HCl challenge. To be noted: aspirin 18 mg/kg, 0.6 N HCl 45 min later, ASA:lecithin oil 1:0.5, 1:1, 1:2, FIG. 1. The format is in vivo, rat. The method, then:
One preferred embodiment of this formulation is a lecithin oil based PC-NSAID composition, which has been tested for GI toxicity. The three formulations that were tested include lecithin oils combined with aspirin, indomethacin and ibuprofen. In this study, aspirin was combined with Phosal® 35 SB, a lecithin oil, marketed by Phospholipid GmbH (Cologne, Germany), that is constituted of soy lecithin-derived components in sunflower oil. More particularly, Phosal® 35 SB lecithin oil contains about 33-40 wt. % phosphatidylcholine (PC, not including lyso-phosphatidylcholine), about 26-31 wt. % triglycerides, about 8-13 wt. % free fatty acids, and about 5-9 wt. % glycolipids. The aspirin/lecithin oil (Phosal® 35 SB) composition was intragastrically administered to fasted rats at an aspirin dose of 18 mg/kg, where the NSAID:lecithin oil weight ratio was systematically varied from 1:0.5, to 1:1, to 1:2. In addition, other groups of rats received an equivalent dose of aspirin in the absence of the lecithin oil, or an equivalent volume of saline. Forty five minutes later all animals were intragastrically challenged with 1 ml of 0.6 N HCl, and 15 min later, the animals were euthanized and their stomachs opened and the gastric lesions scored by an established method.^50-52

Each structure is given as a SMILES string. A value given as a limit tells only on which side of the number the result lay.

Consider `CCCCCCCCCCCCCCCC(=O)OC[C@H](COP(=O)([O-])OCC[N+](C)(C)C)OC(=O)CCCCCCCCCCCCCCC` [DPPC, dipalmitoylphosphatidylcholine], for which the “6-keto PGF1α production by abdominal aorta” value in data set [1] is on record as “no effect”. Further, the “PGI2 to TXA2 ratio in affected carotid arteries” value in [2] was “improved slightly”. The “time until blood flow velocity dropped to zero (complete occlusion)” value in [3] (control rabbits treated with saline or phospholipid alone, FIG. 14A) is given as below 60 min. Further, the “mean time until closing” value in data set [3] (control rabbits, saline or phospholipid alone (pooled), in min) was found to be 40±17.

Regarding `CC(=O)Nc1ccc(O)cc1` [Tylenol, acetaminophen], in data set [4], the “plasma aspartate transaminase (AST), liver injury” value was “significantly elevated”.

Take `COc1ccc2c(c1)c(CC(=O)O)c(C)n2C(=O)c1ccc(Cl)cc1` [indomethacin]: the GI bleeding result with fasted rats [5] (indomethacin 10 mg/kg, FIG. 2) is “severe increase in GI bleeding”. Moreover, in the data set with rats' inflamed paw (indomethacin 4 mg/kg intragastric, FIG. 6), the “pain pressure threshold of inflamed paw (analgesic activity)” value is on record as “modest though non-significant, ability to increase the pain pressure threshold”.

Consider `CC(C)Cc1ccc(C(C)C(=O)O)cc1` (centres unmarked) [ibuprofen], for which, in the data set with fasted rats [5] (ibuprofen 100 mg/kg, FIG. 3), the GI bleeding result is recorded as “modest increase in GI bleeding”. For the same compound, the “amyloid-plaques, dystrophic neurites and activated microglia” value in the data set on Tg2576 mouse is “reduce numbers of amyloid-plaques, dystrophic neurites and activated microglia”. Further, the body weight gain result in the data set with SCI rats (6 week period, FIG. 9) is “do not gain weight”. Also, the “pain pressure threshold (hyperalgesia), Randall Sellito” value with SCI rats (6 weeks after SCI, FIGS. 7A, 7B) was “hyperalgesia due to SCI was not seen”. Further, the “pain pressure threshold of inflamed paw (analgesic activity)” value in the data set on rats' inflamed paw (ibuprofen 25 mg/kg intragastric, FIG. 5) is reported as “modest though non-significant, ability to increase the pain pressure threshold”.

For `CC(=O)Oc1ccccc1C(=O)O` [aspirin], in the data set on mucosal COX activity, the “inhibition of mucosal COX activity” value was above 90%. In data set [1], the “6-keto PGF1α production by abdominal aorta” value is reported as “significantly inhibited”. For the same compound, the “PGI2 to TXA2 ratio in affected carotid arteries” value in data set [2] is reported as “improved slightly”. Moreover, the “TXB2 production in platelets” value in data set [6] is “reduction in TXB2”. The “time to vessel occlusion by thrombus” value in [3] (2.5 mg/kg aspirin i.v., FIG. 14A) was at most 61 ± 15 min. The vessel occlusion result in data set [3] (aspirin 5-20 mg/kg i.v., 2-3 hr experiment (data not shown)) is given as “no vessel occlusion”. For the same compound, the “pain threshold of affected paw (analgesic activity)” value in the data set on rats' inflamed paw (aspirin 10 mg/kg intragastric, all weight ratios tested, FIG. 4) is “modest ability to increase the pain threshold”. The gastric lesions result in the data set with fasted rats [7] is “high number of gastric lesions”.
